Measured values published in EP1306084A1, “Compositions for the control of parasitic infestations in fish” (Alpharma AS, priority 1998, dated 1999).
Where two headings read alike, the source gives them in different places.

What was measured:
Assay type in all cases: in vivo, salmon (Salmo salar)
sea lice [1] = test: Injection of hexaflumuron in multivalent vaccine formulations, sea lice counts after sea water transfer (Example 10)
Protocol: The treatment dosage was 9 mg hexaflumuron per kg fish per day for 10 days. This is indicated by "Groups/Timepoints" in the figure; • Figure 2 relates to the trial in Example 2 that was carried out on Atlantic salmon (Salmo salar). […] The treatment dosage varied between 3 - 9 mg hexaflumuron and 9- 12 mg fluazuron per kg fish per day for 7 days. This is indicated by "Groups/Timepoints" in the diagram. […] The treated groups are compared to an untreated control group. The treatment dosage was 4 mg hexaflumuron per kg fish per day for 5 days. This is indicated by "Groups/Timepoints" in the figure. Cage 2 = controls, Cage 4-6 = treated groups, 16.6.97 = time point for sea transfer and 5.8.97= controls treated by bathing with deltamethrin; • Figure 4 relates to the trial described in Example 5, which was carried out on sea trout (Salmo trutta). […] The treated groups are compared with an untreated control group. The dosage for oral treatment was 4 mg hexaflumuron per kilo fish per day for 5 days, and 5 ppm hexaflumuron as a 30 minute bath treatment. This is indicated by "Groups/Timepoints" in the figure. Cage 1.4 = Controls, cage 1.3 = Oral treatment, cage 1.2 = Bath treatment. […] The treated groups are compared with an untreated control group, and one group that has been treated orally with teflubenzuron (10 mg/kg of teflubenzuron per kg fish per day for 7 days). The dosage for oral treatment was 5.6 mg hexaflumuron per kg fish per day for 7 days, and 5 ppm hexaflumuron as a 30 minute bath treatment. […] End of treatment: 22.10.97, Sea transfer: 23.10.97. T1 = 3 weeks post end of treatment, T2 = 5 weeks post end of treatment, T3 = 9 weeks post end of treatment, T4 = 12 weeks post end of treatment; • Figure 6 relates to the trial in Example 6 at time points 4-6, with the same trial parameters as for Figure 5. […]
Following transfer to sea water, the fish were exposed to natural sea lice infestation. Every three weeks lice were counted on 10 fish of each group to assess if the number of lice between the various groups differed. […]

sea lice [2] = test: Injection of hexaflumuron in furunculosis vaccine formulations, sea lice counts after sea water transfer (Example 7); conditions: for average number of lice: control group 19.2
Protocol: The treatment dosage was 9 mg hexaflumuron per kg fish per day for 10 days. This is indicated by "Groups/Timepoints" in the figure; • Figure 2 relates to the trial in Example 2 that was carried out on Atlantic salmon (Salmo salar). […] The treatment dosage varied between 3 - 9 mg hexaflumuron and 9- 12 mg fluazuron per kg fish per day for 7 days. This is indicated by "Groups/Timepoints" in the diagram. […] The treated groups are compared to an untreated control group. The treatment dosage was 4 mg hexaflumuron per kg fish per day for 5 days. This is indicated by "Groups/Timepoints" in the figure. Cage 2 = controls, Cage 4-6 = treated groups, 16.6.97 = time point for sea transfer and 5.8.97= controls treated by bathing with deltamethrin; • Figure 4 relates to the trial described in Example 5, which was carried out on sea trout (Salmo trutta). […] The treated groups are compared with an untreated control group. The dosage for oral treatment was 4 mg hexaflumuron per kilo fish per day for 5 days, and 5 ppm hexaflumuron as a 30 minute bath treatment. This is indicated by "Groups/Timepoints" in the figure. Cage 1.4 = Controls, cage 1.3 = Oral treatment, cage 1.2 = Bath treatment. […] The treated groups are compared with an untreated control group, and one group that has been treated orally with teflubenzuron (10 mg/kg of teflubenzuron per kg fish per day for 7 days). The dosage for oral treatment was 5.6 mg hexaflumuron per kg fish per day for 7 days, and 5 ppm hexaflumuron as a 30 minute bath treatment. […] End of treatment: 22.10.97, Sea transfer: 23.10.97. T1 = 3 weeks post end of treatment, T2 = 5 weeks post end of treatment, T3 = 9 weeks post end of treatment, T4 = 12 weeks post end of treatment; • Figure 6 relates to the trial in Example 6 at time points 4-6, with the same trial parameters as for Figure 5. T5 = 15 weeks post end of treatment, T6 = 17 weeks post end of treatment. Cage 3 and 4 were treated by bath with deltamethrin after sea lice counting at T4 (12.01.98); • Figure 7 relates to the trial described in Example 7 where salmon were injected on 17.12.97 with two formulations (groups L and R, respectively) of hexaflumuron and a vaccine formulation without hexaflumuron (control). […] The vaccinated fish was transferred to sea water on 09.01.98; • Figure 8 summarises the trial of Example 8 where salmon smolts were injected with 9 different active substances on 08.07.98. Only results for Moxidectin (Mox.), Lufenuron (Luf.) and hexaflumuron in Apoject 1-Fural (Hex.Apo) and in animal oil (Hex.oil) are shown, and • Figure 9 summarises the trial described in Example 10 where salmon were injected on 03.12.97 with 3 different formulations of hexaflumuron (Hexa 1, Hexa 2 and Hexa 3). The fish were transferred to sea water at T0.
About 80 salmon (Salmo salar) at an average weight of about 80 grams were divided into two groups and injected with two different formulations of hexaflumuron at a dosage of about 50 mg/kg. Both formulations were prepared based upon a vaccine against furunculosis containing inactivated cells of Aeromonas salmonicida subsp. salmonicida. Hexaflumuron was mixed/formulated into the vaccine in two different manners to study the effect of the formulation on the depot effect in the fish and on the stability characteristics of the vaccine emulsions.
The fish were dosed (injected) while they were in freshwater and 23 days after the administration they were transferred to sea water (mini-cages). In parallel with the two groups, a third group comprising 40 fish of the same origin and size was vaccinated with a conventional vaccine without hexaflumuron. This group was kept in the same tank (freshwater) and cage (sea water) as the "hexaflumuron injected" groups and served as negative control/reference group in respect of sea lice infestations. Prior to the start of the trial, the groups were marked by fin cutting. The water temperature varied between 3.8 and 16.0°C throughout the trial. […]

[3] = Chemical analysis of muscle with skin after injection (Example 7); conditions: fish, 50 mg/kg; for concentration at 8280 h: T11, 345 days after injection, read-out: muscle/skin concentration of hexaflumuron
Protocol: Tissue samples (muscle with skin) for chemical analysis were collected from three fish at each sample point in time throughout the entire trial period in order to monitor the concentrations of hexaflumuron. At sea water transfer, the muscle/skin concentrations were between 2 and 3 µg hexaflumuron per g of tissue. […] At T8, i.e. 238 days after vaccination, the concentration of hexaflumuron varied between 0.49 and 0.53 µg per g of tissue. At T11, i.e. 345 days after injection (322 days after sea water transfer) the muscle/skin concentration of hexaflumuron in the two groups was 0.13 and 0.11 µg/g tissue, respectively. At the same point in time, different stages of sea lice had become established on these fish.

[4] = injected in vaccine formulations

O=C(NC(=O)c1c(F)cccc1F)Nc1cc(Cl)c(OC(F)(F)C(F)F)c(Cl)c1 [hexaflumuron]
number of sea lice versus control (sea lice [1]; 9 and 12 weeks after sea water transfer (T3 and T4), 3 formulations, 25 mg per ml vaccine): significantly lower
protection against recurrent infestation after injection (sea lice [1]; [4]): ≥ 18 weeks
protection against recurrent infestation after sea water transfer (sea lice [1]; [4]): at least 12 weeks
average number of lice (sea lice [2]; T8, first-named treated group (formulation)): 4.8
average number of lice (sea lice [2]; T8, second-named treated group (formulation)): 1.8
number of sea lice versus control group (sea lice [2]; T9 and T10, treated groups): significant differences
number of lice versus control group (sea lice [2]; T11, after ALPHA MAX bath of all groups): significantly less lice
excellent protection against sea lice infestation after sea water transfer (sea lice [2]; injection about 50 mg/kg): 7 months
partially protective effect after sea water transfer (sea lice [2]; injection about 50 mg/kg): ≤ 10.5 months
time after sea water transfer until sea lice were first recorded (T8) (sea lice [2]; injection about 50 mg/kg, two treated groups, control had lice from T5 (126 days)): 215 days
concentration at 5712 h ([3]; T8, 238 days after vaccination, read-out: concentration of hexaflumuron in muscle/skin): 490 to 530 ng/g
concentration at 8280 h ([3]; first-named group): 130 ng/g
concentration at 8280 h ([3]; second-named group): 110 ng/g
concentration at 552 h ([3]; at sea water transfer (23 days after injection of about 50 mg/kg), read-out: muscle/skin concentrations): 2000 to 3000 ng/g
